Laboratory results as given in PubChem BioAssay (NCI).
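Cells were grown in 96-well plates and exposed to each compound for 48 hours at five concentrations; endpoints were interpolated linearly between bracketing concentrations, or set to the highest concentration if not reached. GI50 is the concentration that inhibits growth by half. Definition used: TGI = concentration required for complete inhibition of growth.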

Legend:
Test in all cases: NCI anticancer screen, dose series, 48 h
SF-295 CNS = tested on: SF-295 CNS
M19-MEL melanoma = tested on: M19-MEL melanoma
SN12C renal = tested on: SN12C renal
SF-539 CNS = tested on: SF-539 CNS
OVCAR-4 ovarian = tested on: OVCAR-4 ovarian
IGROV1 ovarian = tested on: IGROV1 ovarian
DLD-1 colon = tested on: DLD-1 colon
M14 melanoma = tested on: M14 melanoma
HT29 colon = tested on: HT29 colon
DMS 114 small cell lung = tested on: DMS 114 small cell lung
T-47D breast = tested on: T-47D breast

Row | Structure (SMILES) | TGI (SF-295 CNS) | TGI (M19-MEL melanoma) | TGI (SN12C renal) | TGI (SF-539 CNS) | TGI (OVCAR-4 ovarian) | TGI (IGROV1 ovarian) | TGI (DLD-1 colon) | TGI (M14 melanoma) | TGI (HT29 colon) | TGI (DMS 114 small cell lung) | GI50 (SF-295 CNS) | GI50 (M19-MEL melanoma) | GI50 (SN12C renal) | GI50 (SF-539 CNS) | GI50 (OVCAR-4 ovarian) | GI50 (IGROV1 ovarian) | GI50 (M14 melanoma) | GI50 (HT29 colon) | GI50 (T-47D breast) | TGI (T-47D breast)
1 | O=[N+]([O-])c1ccccc1C=NC12CC3CC(CC(C3)C1)C2 | > 100 µM | > 100 µM | > 100 µM | > 100 µM | > 100 µM | > 100 µM | > 100 µM | > 100 µM | > 100 µM |  |  |  |  |  |  |  |  |  |  | 
2 | COC(=O)C1C=NNC1C(=O)OC (configuration not stated) | > 100 µM | > 100 µM | > 100 µM | > 100 µM | > 100 µM | > 100 µM |  | > 100 µM | > 100 µM | > 100 µM |  |  |  |  |  |  |  |  |  | 
3 | CN[C@@H](C)[C@H](N)c1ccccc1 | > 100 µM |  | > 100 µM | > 100 µM |  | > 100 µM | > 100 µM | > 100 µM | > 100 µM |  |  |  |  |  |  |  |  |  |  | 
4 | CCOC(=N)CC(=O)Nc1cccc(Cl)c1 | > 100 µM | > 100 µM | > 100 µM | > 100 µM | > 100 µM | > 100 µM | > 100 µM | > 100 µM | > 100 µM |  |  |  |  |  |  |  |  |  |  | 
5 | CC(=O)[CH-]C(=O)c1ccccc1.CC(=O)[CH-]C(=O)c1ccccc1.Cl.[O-]c1ccccn1.[O-]c1ccccn1.[Ti+4] | > 100 µM | > 100 µM | > 100 µM | > 100 µM | > 100 µM | > 100 µM |  | > 100 µM | > 100 µM |  | 47.6 µM | > 100 µM | > 100 µM | > 100 µM | > 100 µM | > 100 µM | > 100 µM | > 100 µM |  | 
6 | CCc1cc2ncc(CN3CCN(c4ccc(C(=O)NC)nc4)CC3)cc2[nH]c1=O | > 100 µM |  | > 100 µM | > 100 µM | > 100 µM | > 100 µM |  | > 100 µM | > 100 µM |  | 56.7 µM |  | 98.3 µM | 66.9 µM | 41.3 µM | 57.4 µM | 92.4 µM | 48.2 µM | 28.2 µM | > 100 µM
7 | CCN(CC)CCN(Cc1ccc(F)cc1)c1ccc(CO)c(Cl)c1 | 49.9 µM |  | > 100 µM | > 100 µM | 35.2 µM | 3.61 µM |  | 35.2 µM | 69.4 µM |  | 15.1 µM |  | 27.7 µM | 48.1 µM | 4.6 µM | 0.832 µM | 17.2 µM | 18.6 µM | 7.05 µM | > 62.6 µM
8 | CC1(C)C(=O)/C=C\C(=O)C(C)(C)C(=O)/C=C\C(=O)C(C)(C)C(=O)/C=C\C(=O)C(C)(C)C(=O)/C=C\C1=O | 54.5 µM | 40.6 µM | 54.8 µM | 55.8 µM | 53.1 µM | 56.5 µM | 30.1 µM | 48.8 µM | 37.3 µM |  |  |  |  |  |  |  |  |  |  | > 100 µM
9 | Cc1ccc(C(SCC(N)C(=O)O)(c2ccccc2)c2ccccc2)cc1 (configuration not stated) | > 100 µM |  | > 65.9 µM | 1.08 µM | > 100 µM | > 71.3 µM |  | 0.0663 µM | > 100 µM |  | 0.0465 µM |  | 0.13 µM | 0.033 µM | 22.8 µM | 0.141 µM | 0.0247 µM | 0.365 µM | 0.123 µM | > 77.7 µM
10 | C/C=C/[C@H]1O[C@@H]2C(=C[C@H]1O)C(=O)O[C@H]2C | > 100 µM |  | 33.6 µM | 3.38 µM | 33.3 µM | > 59.9 µM |  | 30.6 µM | 27.4 µM |  | > 82.1 µM |  | 16.6 µM |  | 12.3 µM | 17.1 µM | 14.7 µM | 2.19 µM | 7.34 µM | 25.5 µM
11 | C=C1C2CC(OC(C)=O)C3(C)C(c4ccoc4)OC(=O)[C@@H](O)[C@]13OC1C[C@H](OC(C)=O)C(C)(C)[C@H](CC(=O)OC)[C@]12C (some centres not stated) | > 100 µM | > 100 µM | > 100 µM | > 100 µM | > 100 µM | > 100 µM |  | > 100 µM | > 100 µM | > 100 µM |  |  |  |  |  |  |  |  |  | 
12 | CCOC(=O)c1c(C)nc2c(c1N)CC(=O)N2CCc1ccccc1 | 33.1 µM |  | 18.3 µM | 11.9 µM | 3.26 µM | 13 µM |  | 3.47 µM | 14.5 µM |  | 2.16 µM |  | 0.434 µM | 0.324 µM | 1.48 µM | 1.26 µM | 0.845 µM | 0.327 µM | 0.962 µM | 22.9 µM
13 | C/C(=N\NC(=S)N1CC2CCC(CC2)C1)c1cccc(C)n1 | 13.1 µM |  | 12.6 µM | 2.58 µM | 16.1 µM | 13.9 µM |  | 5.55 µM | 11.4 µM |  |  |  | 0.774 µM | 0.464 µM | 0.000172 µM |  | 0.477 µM | < 0.0001 µM |  | 20.6 µM
14 | COC1C(OC(=O)/C=C/C=C/C=C/C=C\C(=O)O)CCC2(CO2)C1C1(C)OC1CC=C(C)C (configuration not stated) | > 200 µM |  | > 200 µM | > 200 µM | > 200 µM | > 200 µM |  | > 200 µM | > 200 µM |  | > 200 µM |  | > 200 µM | > 200 µM | > 200 µM | > 200 µM | > 200 µM | > 200 µM | > 200 µM | > 200 µM
15 | CCCCN(CCCC)CCC(O)c1cc2c(Cl)cc(Cl)cc2c2cc(C(F)(F)F)ccc12 (configuration not stated) | 25.4 µM |  | 20 µM | 30.1 µM | 28.5 µM | 26.5 µM |  | 23.6 µM | 34.9 µM |  |  |  |  |  |  |  |  |  |  | 28.9 µM
16 | COc1ccc(/C=C2\CN(Cc3cn(CCNc4ccnc5cc(Cl)ccc45)nn3)C/C(=C\c3ccc(OC)c(OC)c3)C2=O)cc1OC | 6.1 µM |  | 6.79 µM | 8.14 µM | > 100 µM | 7.09 µM |  | 12.5 µM | 8.82 µM |  | 2.41 µM |  | 2.36 µM | 2.58 µM | 4.07 µM | 2.67 µM | 3.35 µM | 3.13 µM | 5.05 µM | > 100 µM
17 | c1cncc(C2Nc3cccc4cccc(c34)N2)c1 | > 100 µM |  | > 100 µM | > 100 µM | 27.3 µM | 25.6 µM |  | > 100 µM | > 100 µM |  | 49.7 µM |  | 53.4 µM | 39 µM | 13.8 µM | 11.8 µM | 46 µM | 31.8 µM | 2.62 µM | 9.29 µM
